# From US10590166B2, “Peptides useable for treating cancer” (Allegro Pharmaceuticals, LLC, priority 2009, dated 2020)
# Values joined by “and” are separate entries in the source; they are usually repeats but may differ in a detail not shown here. Equal entries are not always repeated. Where two headings read alike, the source gives them in different places. Square brackets hold non-standard residues; d marks the D form. Peptide text beside a SMILES is read from it. Cya = N[CH](CS(=O)(=O)O)C(=O)O
# What was measured:
# [1] = tested on: human subjects with diabetic macular edema; type: in vivo; settings: for persistence of improvements in BCVA and OCT central macular thickness off treatment: follow up after the last intravitreal treatment
# Experimental: Fifteen human patients with late stage DME received three monthly intravitreal injections of Compound 1 as part of a multiple-injection Phase 1 Human Safety Study. […] While this study was firstly a safety study, efficacy was also assessed. Eight of the patients patients improved three or more lines in BCVA (representing 53% of the treated patients) and four of the patients improved from nearly legally blind to functional vision in the 20/40 to 20/60 range. […] These improvements in BCVA and OCT central macular thickness persisted for 90 days of follow up off treatment.
# The objective of the Phase 1 study was to evaluate the safety and initial efficacy of the ophthalmic intravitreal injection of COMPOUND 1 in human subjects with end stage diabetic macular edema (DME). The primary endpoint of this study was the observation of dose limiting toxicity. A secondary endpoint of this study was observation of a clinical benefit in reducing the diabetic macular edema in BCVA (ETDRS lines) and OCT central macular thickness.
# Fifteen human subjects with chronic end-stage DME completed this open label study. Subjects at enrollment had BCVA of 20/100 or worse primarily due to DME and had not undergone anti-VEGF treatment or focal laser within 90 days prior to enrollment. Many study subjects were refractory to previous Avastin treatments. Study subjects received three monthly intravitreal injections of 2.5 mg COMPOUND 1 and were followed monthly for an additional 3 months. Safety measurements were followed by BCVA, slit lamp evaluation, dilated fundus exam, 10P measurements, OCT, FA, Fundus Photos, B-scan ultrasound, and ERG.
# [2] = tested on: human umbilical vein endothelial cells (HUVEC); assay: wound-healing assay with HUVEC on fibronectin coated surface; type: cell-based
# Experimental: To test the anti-adhesive properties of RGCysteic Acid peptides in vitro, a wound-healing assay was performed with human umbilical vein endothelial cells (HUVEC). HUVEC were seeded and allowed to grow to a confluent monolayer on a fibronectin coated surface. A wound (a scratch rift) was created by dragging a small pipette tip across the HUVEC monolayer. The cells were then incubated in fresh growth medium containing the RGCysteic Acid peptide (Compound 1; 10 mM), and the wound area was imaged in five different fields at various time points (0, 4, 8, 12, 16, 20, 24 hours) to determine the kinetics of wound closure. The level of wound closure was quantified by determining the fraction of the original wound area that was re-occupied by HUVEC through cellular adhesion, migration and proliferation.
# In control studies, the following peptides were used in place of RGCysteic Acid (Compound 1): cyclic-RGD peptide (1 mM), positive control) and RGE peptide (1 mM, negative control).
# The results are shown as a percentage of the original area. The error bars correspond to the standard deviation in wound size across 2-6 independent trials.
# CNV mouse model = assay: Suppression of laser-induced choroidal neovascularization, CNV mouse model; type: in vivo; settings: 14 days after laser; for size of CNV lesions: vs vehicle
# Experimental: In this example, Compound 1 was tested to determine whether it CNV in a published mouse model. See, Umeda N, Kachi S, Akiyama H, Zahn G, Vossmeyer D, Stragies R, Campochiaro P., Suppression and Regression of Choroidal Neovascularization by Systemic Administration of an α5β1 Integrin Antagonist: Molecular Pharmacology:2006, 69, 1820-1828.
# The study mice had laser-induced rupture of Bruch's membrane followed by an intravitreal injection of a single dose of COMPOUND 1 at the concentration of 1.0 μg/1 μL, 25 μg/1 μL and at 50 μg/1 μL, as well as a vehicle immediately after laser treatment. Fourteen days after laser treatment, the area of CNV was measured by image analysis. […] FIG. 8 is a graph showing total area of neovascularization in a CNV mouse model 14 days after treatment with various doses of Compound 1 and control (vehicle only).
# New Zealand Rabbits = assay: Ocular toxicity of intravitreal Compound 1 with and without urea (Table A); type: in vivo; settings: 24 hour follow up
# [3] = tested on: ischemic retinopathy mouse model; assay: ROP / ischemic retinopathy mouse model, pre-retinal neovascularization; type: in vivo
# Experimental: In this Example, Compound 1 was tested in an ischemic retinopathy mouse model to explore the feasibility of suppressing pre-retinal neovascularization.
# Mice that had ischemic retinopathy were injected intravitreously with a single dose of Compound 1 at the concentration of 0.125 μg/1 μL, 12.5 μg/1 μL, 25.0 μg/1 μL and at 50.0 μg/1 μL (Groups B, D, F and H, respectively), as well as a vehicle (BSS) (Controls 1, 2, 3 and 4) on post-natal day 12. On post-natal day 17, 5 days after intravitreal injection, the area of neovascularization was measured by image analysis. FIG. 9 is a bar graph comparing the measured area of neovascularization in mice treated with these varying doces of compound 1 or control (vehicle only).
# [4] = 15 DME patients, three monthly intravitreal injections of 2.5 mg
# [5] = 15 DME patients, three monthly intravitreal injections of 2.5 mg, listed as COMPOUND 1
# [6] = single intravitreal 2.5 mg/100 μL
# [7] = single intravitreal injection, 8 eyes per group
structure (smiles),measurement,setting,value
"CC(O)C(NC(=O)C(CS(=O)(=O)O)NC(=O)CNC(=O)C(CCCNC(=N)N)NC(=O)CN)C(=O)N1CCCC1C(=O)O (centres unmarked) [Compound 1, Glycinyl-Arginyl-Glycinyl-Cysteic-Threonyl-Proline-COOH] (H-GRG[Cya]TP-OH; configuration not given here)",number of patients with no material increase in CMT,[1]; 15 DME patients,7 out of 15 patients
same,number of subjects with no material change in BCVA,[1]; 15 DME patients,7 out of 15 subjects
same,share of treated patients improved three or more lines in BCVA,"[1]; 15 DME patients, by study day 90 after 3 intravitreal injections of 2.5 mg",53%
same,number of patients improved from nearly legally blind to functional vision in the 20/40 to 20/60 range,"[1]; 15 DME patients, three monthly intravitreal injections",four
same,number of patients with reduction in CMT by 30% to 80%,[1]; [4],eight
same,number of subjects improved BCVA by three or more (three to five) lines,[1]; [4],Eight
same,share of subjects with reduction in OCT central macular thickness of at least 30%,[1]; [4],53%
same,number of patients with reduction in CMT by 30% to 80%,[1]; [5],8 out of 15 and 8 of 15 patients
same,number of subjects improved BCVA by three or more (three to five) lines,[1]; [5],8 out of 15 and 8 of 15 subjects
same,maximum reduction in macular edema (OCT),[1]; 608 to 103,505 microns
same,"maximum reduction in macular edema (OCT), relative",[1]; 608 to 103 microns,~80%
same,persistence of improvements in BCVA and OCT central macular thickness off treatment,[1],90 days
same,persistence of improvements in BCVA and OCT central macular thickness off treatment,[1]; listed as COMPOUND 1,at least 90 days
same,ERG changes,[1]; in vivo,No ERG changes
same,corneal decompensation or cataract progression,[1]; in vivo,No corneal decompensation or cataract progression
same,elevations in IOP,[1]; in vivo,No sustained elevations in IOP
same,inflammatory reactions in the anterior chamber or vitreous cavity,[1]; in vivo,no reports of inflammatory reactions
same,retinal tears or retinal detachments,[1]; in vivo,No retinal tears or retinal detachments
same,vascular occlusions,[1]; in vivo,no vascular occlusions
same,inhibition of cell adhesion,"[2]; HUVEC wound healing model, in 12 hours",74%
same,inhibition of HUVEC wound healing,"[2]; after 24 hours, Compound 1 10 mM, control peptides 1 mM",70%
same,apoptosis of the HUVEC cells,[2]; wound healing assay,without apoptosis
same,size of CNV lesions,CNV mouse model; single intravitreal 1.0 μg/1 μL,somewhat smaller
same,reduction in CNV compared to vehicle treated eyes,"CNV mouse model; single intravitreal 25 μg/1 μL, statistically significant",43%
same,size of CNV lesions,CNV mouse model; single intravitreal 50 μg/1 μL,somewhat smaller
same,Ocular toxicity: RPE toxicity,New Zealand Rabbits; [6],No RPE toxicity
same,Ocular toxicity: cataract formation,New Zealand Rabbits; [6],No cataract
same,Ocular toxicity: exudates,New Zealand Rabbits; [6],No exudates
same,Ocular toxicity: inflammation,New Zealand Rabbits; [6],No inflammation
same,Ocular toxicity: retinal hemorrhage,New Zealand Rabbits; [6],No retinal
same,"Ocular toxicity: retinal tears, breaks or detachments",New Zealand Rabbits; [6],"No retinal tears,"
same,Ocular toxicity: retinal vascular compromise,New Zealand Rabbits; [6],No retinal
same,Total PVD,New Zealand Rabbits; [7],75% Total PVD
same,Vitreous liquefaction,New Zealand Rabbits; [7],Complete
same,size of neovascularization lesions,"[3]; Group B, single intravitreal 0.125 μg/1 μL on post-natal day 12, measured day 17",somewhat smaller
same,size of neovascularization lesions,"[3]; Group D, single intravitreal 12.5 μg/1 μL on post-natal day 12, measured day 17, statistically significant vs control",greatly decreased
same,size of neovascularization lesions,"[3]; Group F, single intravitreal 25.0 μg/1 μL on post-natal day 12, measured day 17, statistically significant vs control",greatly decreased
same,size of neovascularization lesions,"[3]; Group H, single intravitreal 50.0 μg/1 μL on post-natal day 12, measured day 17, statistically significant vs control",greatly decreased
